Assay results reported in US20120214822A1 (ASTRAZENECA AB, priority 2007, published 2012).
Structures can show the parent of a compound that is named as a salt.
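Also: 0.5 nM final p38α, reaction started with ATP and run 45 min at 37 °C, phospho-ATF2 read by antibody-based AlphaScreen, background wells quenched with EDTA before ATP.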

What follows are compounds tested against human active recombinant p38α-6His tagged (Homo sapiens, UniProt Q16539) (assay: P38 Alpha Enzyme Assay (AlphaScreen, biotinylated-ATF2 substrate)). Settings: p38 alpha enzyme inhibition; means of replicate determinations; 4 h pre-incubation at 37° C.; SD of assay 0.2-0.3 log units.
Chain of human active recombinant p38α-6His tagged (Q16539 whole entry): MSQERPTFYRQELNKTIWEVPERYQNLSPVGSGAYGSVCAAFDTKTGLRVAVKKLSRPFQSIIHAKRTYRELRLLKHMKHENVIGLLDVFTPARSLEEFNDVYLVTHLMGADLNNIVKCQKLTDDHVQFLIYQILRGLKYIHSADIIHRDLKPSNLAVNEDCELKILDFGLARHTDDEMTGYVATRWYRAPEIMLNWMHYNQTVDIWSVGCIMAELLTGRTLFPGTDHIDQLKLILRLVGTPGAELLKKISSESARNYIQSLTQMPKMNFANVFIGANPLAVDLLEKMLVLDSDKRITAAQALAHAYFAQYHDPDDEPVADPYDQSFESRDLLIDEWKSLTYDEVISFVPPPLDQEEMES
Format: biochemical
CNCCOc1ccccc1C1(Nc2nccn(-c3cc(C(=O)NC4CC4)ccc3C)c2=O)CC1 [Example 167, N-Cyclopropyl-4-methyl-3-[3-[[1-[2-[2-(methylamino)ethoxy]phenyl]cyclopropyl]amino]-2-oxo-1(2H)-pyrazinyl]-benzamide] gave a pIC50 of 9.7. CNCCOc1ccccc1C(C)(C)Nc1nccn(-c2cc(C(=O)NC3CCC3)ccc2C)c1=O [Example 224, N-Cyclobutyl-4-methyl-3-[3-[[1-methyl-1-[2-[2-(methylamino)ethoxy]phenyl]ethyl]amino]-2-oxo-1(2H)-pyrazinyl]-benzamide] showed a pIC50 of 8.4. Compound Cc1ccc(C(=O)NC2CC2)cc1-n1ccnc(NC(C)(C)c2ccccc2OCC2CCNCC2)c1=O [Example 214, N-Cyclopropyl-4-methyl-3-[3-[[1-methyl-1-[2-(4-piperidinylmethoxy)phenyl]ethyl]amino]-2-oxo-1(2H)-pyrazinyl]-benzamide] has a pIC50 of 9.1. For Cc1ccc(C(=O)NC2CC2)cc1-n1ccnc(NCc2cccc(C(=O)NC3CC3)c2)c1=O [Example 69, N-Cyclopropyl-3-[3-[[[3-[(cyclopropylamino)carbonyl]phenyl]methyl]amino]-2-oxo-1(2H)-pyrazinyl]-4-methyl-benzamide], the pIC50 was 6.2. Work on CCNCCOc1ccccc1C1(Nc2nccn(-c3cc(C(=O)NC4CC4)cc(F)c3C)c2=O)CC1 [Example 262, N-Cyclopropyl-3-[3-[[1-[2-[2-(ethylamino)ethoxy]phenyl]cyclopropyl]amino]-2-oxo-1(2H)-pyrazinyl]-5-fluoro-4-methyl-benzamide] yielded a pIC50 of 10.2. Cc1ccc(C(=O)NC2CC2)cc1-n1ccnc(N[C@@H](c2ccccc2)[C@@H](C)CN2CCSCC2)c1=O [Example 189, N-Cyclopropyl-4-methyl-3-[3-[[(1R,2S)-2-methyl-1-phenyl-3-(4-thiomorpholinyl)propyl]amino]-2-oxo-1(2H)-pyrazinyl]-benzamide] showed a pIC50 of 9.2. CCNC(=O)c1ccc(C)c(-n2ccnc(NC(C)(C)c3ccccc3OCCNC)c2=O)c1 [Example 220, N-Ethyl-4-methyl-3-[3-[[1-methyl-1-[2-[2-(methylamino)ethoxy]phenyl]ethyl]amino]-2-oxo-1(2H)-pyrazinyl]-benzamide] was tested, and the pIC50 was 8.3. With Cc1ccc(C(=O)NC2CC2)cc1-n1ccnc(N[C@@H](c2ccccc2)C2CCN(C(=O)OCc3ccccc3)CC2)c1=O [Example 102, 4-[(R)-[[4-[5-[(Cyclopropylamino)carbonyl]-2-methylphenyl]-3,4-dihydro-3-oxopyrazinyl]amino]phenylmethyl]-1-piperidinecarboxylic acid, phenylmethyl ester] the pIC50 was 6.3. Cc1ccccc1[C@H](Nc1nccn(-c2cc(C(=O)NC3CC3)ccc2C)c1=O)[C@@H](C)CN1CCCC1 [Example 275, N-Cyclopropyl-3-[3-[[(1R,2S)-1-(2-methylphenyl)-2-methyl-3-(1-pyrrolidinyl)propyl]amino]-2-oxo-1(2H)-pyrazinyl]-4-methyl-benzamide] was tested, and the pIC50 was 8.6. Cc1ccc(C(=O)NC2CC2)cc1-n1ccnc(N[C@@H](c2ccccc2)[C@@H](C)CN2CCN(C3CCS(=O)(=O)C3)CC2)c1=O (stereo partly drawn) [Example 191, N-Cyclopropyl-4-methyl-3-[3-[[(1R,2S)-2-methyl-1-phenyl-3-[4-(tetrahydro-1,1-dioxido-3-thienyl)-1-piperazinyl]propyl]amino]-2-oxo-1(2H)-pyrazinyl]-benzamide] was tested, and the pIC50 was 9.6. In the case of Cc1ccc(C(=O)NC2CC2)cc1-n1ccnc(NC2(c3ccccc3OCCNC(C)C)CC2)c1=O [Example 234, N-Cyclopropyl-4-methyl-3-[3-[[1-[2-[2-[(1-methylethyl)amino]ethoxy]phenyl]cyclopropyl]amino]-2-oxo-1(2H)-pyrazinyl]-benzamide], the pIC50 is reported as 10.3. Compound CCc1ccc(C(=O)NC2CC2)cc1-n1ccnc(NC(C)(C)c2ccccc2OCCNC[C@H](C)O)c1=O [Example 289, N-Cyclopropyl-4-ethyl-3-[3-({1-[2-(2-{[(2S)-2-hydroxypropyl]amino}ethoxy)phenyl]-1-methylethyl}amino)-2-oxopyrazin-1(2H)-yl]benzamide] has a pIC50 of 8.9. Work on CNCCSc1ccccc1C(C)(C)Nc1nccn(-c2cc(C(=O)NC3CC3)cc(F)c2C)c1=O [Example 320, N-Cyclopropyl-3-fluoro-4-methyl-5-[3-{[1-methyl-1-(2-{[2-(methylamino)ethyl]sulfanyl}phenyl)ethyl]amino}-2-oxopyrazin-1(2H)-yl]benzamide] yielded a pIC50 of 9.5. Compound Cc1ccc(C(=O)NC2CC2)cc1-n1ccnc(NC(CN2CCCC2)c2ccccc2)c1=O (stereo not shown) [Example 34, N-Cyclopropyl-4-methyl-3-[2-oxo-3-[[1-phenyl-2-(1-pyrrolidinyl)ethyl]amino]-1(2H)-pyrazinyl]-benzamide] has a pIC50 of 6.4. Work on Cc1ccc(C(=O)NC2CC2)cc1-n1ccnc(NC(C)(C)c2ccccc2OCCC2CCNCC2)c1=O [Example 217, N-Cyclopropyl-4-methyl-3-[3-[[1-methyl-1-[2-[2-(4-piperidinyl)ethoxy]phenyl]ethyl]amino]-2-oxo-1(2H)-pyrazinyl]-benzamide] yielded a pIC50 of 9.6. For Cc1ccc(C(=O)NC2CC2)cc1-n1ccnc(NCC(c2ccccc2)N2CCCC2)c1=O (stereo not shown) [Example 63, N-Cyclopropyl-4-methyl-3-[2-oxo-3-[[2-phenyl-2-(1-pyrrolidinyl)ethyl]amino]-1(2H)-pyrazinyl]-benzamide], the pIC50 was 6.3. Cc1ccc(C(=O)NC2CC2)cc1-n1ccnc(N[C@@H](c2ccccc2)[C@@H](C)CN2CCC3(CC2)CNC3)c1=O [Example 188, N-Cyclopropyl-3-[3-[[(1R,2S)-3-(2,7-diazaspiro[3.5]non-7-yl)-2-methyl-1-phenylpropyl]amino]-2-oxo-1(2H)-pyrazinyl]-4-methyl-benzamide] gave a pIC50 of 9.2. Work on CC[C@@H](Nc1nccn(-c2cc(C(=O)NOC)ccc2C)c1=O)c1ccccc1 [Example 113, N-Methoxy-4-methyl-3-[2-oxo-3-[[(1R)-1-phenylpropyl]amino]-1(2H)-pyrazinyl]-benzamide, trifluoroacetate] yielded a pIC50 of 9.8. Compound Cc1ccc(C(=O)NC2CC2)cc1-n1ccnc(N2CCC(c3ccccc3)C2)c1=O (stereo not shown) [Example 54, N-Cyclopropyl-4-methyl-3-[2-oxo-3-(3-phenyl-1-pyrrolidinyl)-1(2H)-pyrazinyl]-benzamide] has a pIC50 of 6.5. With Cc1ccc(C(=O)NC2CC2)cc1-n1ccnc(NC2(c3ccccc3OCCN(C)C)CC2)c1=O [Example 237, N-Cyclopropyl-3-[3-[[1-[2-[2-(dimethylamino)ethoxy]phenyl]cyclopropyl]amino]-2-oxo-1(2H)-pyrazinyl]-4-methyl-benzamide] the pIC50 was 9.9. For Cc1ccc(C(=O)NC2CC2)cc1-n1ccnc(NCc2ccccc2F)c1=O [Example 1, N-Cyclopropyl-3-[3-(2-fluoro-benzylamino)-2-oxo-2H-pyrazin-1-yl]-4-methyl-benzamide], the pIC50 was 7.4. With Cc1ccc(C(=O)N2CCCC2)cc1-n1cc(Br)nc(N2CCN(CCN3CCCC3)C(c3ccccc3)C2)c1=O (stereo not shown) [Example 122, 1-[3-[5-Bromo-2-oxo-3-[3-phenyl-4-[2-(1-pyrrolidinyl)ethyl]-1-piperazinyl]-1(2H)-pyrazinyl]-4-methylbenzoyl]-pyrrolidine] the pIC50 was 5.6. For Cc1ccc(C(=O)NC2CC2)cc1-n1ccnc(N[C@@H](c2ccccc2)[C@@H](C)CN2CCC[C@H]2C)c1=O [Example 184, N-Cyclopropyl-4-methyl-3-[3-[[(1R,2S)-2-methyl-3-[(2R)-2-methyl-1-pyrrolidinyl]-1-phenylpropyl]amino]-2-oxo-1(2H)-pyrazinyl]-benzamide], the pIC50 was 8.7. Cc1ccc(C(=O)NC2CC2)cc1-n1ccnc(N[C@@H](c2ccccc2)[C@@H](C)CN2CCC[C@H](O)C2)c1=O [Example 185, N-Cyclopropyl-3-[3-[[(1R,2S)-3-[(3S)-3-hydroxy-1-piperidinyl]-2-methyl-1-phenylpropyl]amino]-2-oxo-1(2H)-pyrazinyl]-4-methyl-benzamide] was tested, and the pIC50 was 9.1. In the case of Cc1ccc(C(=O)NC2CC2)cc1-n1ccnc(N[C@H](C)c2cccc3ccccc23)c1=O [Example 84, N-Cyclopropyl-4-methyl-3-[3-[[(1R)-1-(1-naphthalenyl)ethyl]amino]-2-oxo-1(2H)-pyrazinyl]-benzamide], the pIC50 is reported as 8.6. Cc1ccc(CCNc2nccn(-c3cc(C(=O)NC4CC4)ccc3C)c2=O)cc1 [Example 74, N-Cyclopropyl-4-methyl-3-[3-[[2-(4-methylphenyl)ethyl]amino]-2-oxo-1(2H)-pyrazinyl]-benzamide] showed a pIC50 of 6.7. CCOc1ccccc1CNc1nccn(-c2cc(C(=O)NC3CC3)ccc2C)c1=O [Example 78, N-Cyclopropyl-3-[3-[[(2-ethoxyphenyl)methyl]amino]-2-oxo-1(2H)-pyrazinyl]-4-methyl-benzamide] gave a pIC50 of 7.8. Cc1ccc(C(=O)NC2CC2)cc1-n1ccnc(N[C@@H](c2ccccc2)[C@@H](C)CN2CCCC2)c1=O [Example 142, N-Cyclopropyl-4-methyl-3-[3-[[(1R,2S)-2-methyl-1-phenyl-3-(1-pyrrolidinyl)propyl]amino]-2-oxo-1(2H)-pyrazinyl]-benzamide] showed a pIC50 of 8.8. Work on Cc1c(F)cc(C(=O)NC2CC2)cc1-n1ccnc(NC(C)(C)c2ccccc2OCCNC(C)C)c1=O [Example 254, N-Cyclopropyl-3-fluoro-4-methyl-5-[3-[[1-methyl-1-[2-[2-[(1-methylethyl)amino]ethoxy]phenyl]ethyl]amino]-2-oxo-1(2H)-pyrazinyl]-benamide] yielded a pIC50 of 10.2. For Cc1ccc(C(=O)NC2CC2)cc1-n1ccnc(N[C@@H](c2cccc3ccccc23)[C@@H](C)CN2CCOCC2)c1=O [Example 145, N-Cyclopropyl-4-methyl-3-[3-[[(1R,2S)-2-methyl-3-(4-morpholinyl)-1-(1-naphthalenyl)propyl]amino]-2-oxo-1(2H)-pyrazinyl]-benzamide], the pIC50 was 8.2. Compound Cc1ccc(C(=O)NC2CC2)cc1-n1ccnc(N[C@@H](c2ccccc2)[C@@H](C)CN2CCN(C(C)C)CC2)c1=O [Example 171, N-Cyclopropyl-4-methyl-3-[3-[[(1R,2S)-2-methyl-3-[4-(1-methylethyl)-1-piperazinyl]-1-phenylpropyl]amino]-2-oxo-1(2H)-pyrazinyl]-benzamide] has a pIC50 of 8.8.
